Series [1] has as its system MAO-A. The arrangement: method as in doi:10.1016/0223-5234(88)90141-9. The conditions noted are these: Figure 1; cited from earlier work.
Series [2] has as its system MAO-B. Also noted: method as in doi:10.1016/0223-5234(88)90141-9. The conditions noted are these: Figure 1; cited from earlier work.
Series [3] concerns the target T1, MAO-B (Homo sapiens, UniProt P27338).
T1 construct: purchased Merck
T1 sequence (P27338 1-520): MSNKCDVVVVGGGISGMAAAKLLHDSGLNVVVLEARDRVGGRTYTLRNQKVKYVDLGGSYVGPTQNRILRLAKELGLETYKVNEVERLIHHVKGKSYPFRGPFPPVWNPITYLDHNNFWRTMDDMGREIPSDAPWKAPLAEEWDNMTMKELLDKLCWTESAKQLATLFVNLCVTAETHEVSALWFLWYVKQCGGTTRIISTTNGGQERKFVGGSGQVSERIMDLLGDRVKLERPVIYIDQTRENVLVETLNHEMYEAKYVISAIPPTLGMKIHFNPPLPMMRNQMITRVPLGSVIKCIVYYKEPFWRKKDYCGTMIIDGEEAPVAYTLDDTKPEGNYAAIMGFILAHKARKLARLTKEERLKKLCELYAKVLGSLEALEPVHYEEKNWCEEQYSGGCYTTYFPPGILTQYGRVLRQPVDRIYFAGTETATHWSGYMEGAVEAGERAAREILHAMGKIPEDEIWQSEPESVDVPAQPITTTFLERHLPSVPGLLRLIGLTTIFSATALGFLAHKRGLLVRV
Description: MAO-B inhibition, recombinant human enzyme, kynuramine substrate, fluorometric end-point. Format: biochemical. The conditions noted are these: mean ± SD of triplicate, racemic mixtures, NI = no inhibition at 100 µM. As to the method:
(§1) The in vitro inhibition studies were carried out according to the published procedure, and the inhibition potencies were expressed as the IC50 values (Figure 2). […] A variety of C3 substituents were explored in this study, which included the phenyl, benzyl and 5-methylthiophen-2-yl moieties, while different substituents on the phenyl (e.g., CH3, OCH3, Cl, Br, F, CF3, OCF3, NO2, PhO) were considered.
(§2) The inhibition potencies of the 1,2,4-oxadiazin-5(6H)-one derivatives were determined using commercially available recombinant human MAO-A and MAO-B (Merck) according to the published procedure. Stock solutions of all compounds were prepared in DMSO and added to the enzyme reactions to yield a final concentration of 4% DMSO. […] Kynuramine was used as enzyme substrate for both MAO isoforms and was oxidized to ultimately form 4-hydroxyquinoline, which is a fluorescent metabolite. The concentrations of 4-hydroxyquinoline in the reactions were measured at end-point by fluorescence spectrometry (λex = 310 nm; λem = 400 nm). Using this approach, the rates of kynuramine oxidation by MAO were measured in the presence of different concentrations of the test inhibitors (0.003–100 µM) as well as in the absence of inhibitor. […] IC50 values were estimated from these plots and were reported as the mean ± SD of triplicate determinations.

Series [4] has as its target T2, MAO-A (Homo sapiens, UniProt P21397).
T2 construct: purchased Merck
T2 sequence (P21397 1-527): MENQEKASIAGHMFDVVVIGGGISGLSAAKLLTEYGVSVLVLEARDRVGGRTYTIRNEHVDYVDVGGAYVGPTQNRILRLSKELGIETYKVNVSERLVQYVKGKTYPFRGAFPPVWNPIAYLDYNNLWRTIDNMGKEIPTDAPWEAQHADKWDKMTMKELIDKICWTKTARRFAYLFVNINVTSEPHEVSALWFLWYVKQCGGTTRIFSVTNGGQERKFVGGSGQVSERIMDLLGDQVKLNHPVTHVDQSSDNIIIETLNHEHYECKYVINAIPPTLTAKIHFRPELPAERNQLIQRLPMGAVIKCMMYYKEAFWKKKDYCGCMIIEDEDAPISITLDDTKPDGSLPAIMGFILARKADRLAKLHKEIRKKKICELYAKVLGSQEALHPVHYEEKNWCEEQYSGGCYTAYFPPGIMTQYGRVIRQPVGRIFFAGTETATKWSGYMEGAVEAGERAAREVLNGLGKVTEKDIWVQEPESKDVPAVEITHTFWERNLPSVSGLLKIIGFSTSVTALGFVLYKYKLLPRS
In words: Mode of MAO-A inhibition, Lineweaver-Burk plots. Format: biochemical. As to the method: (§3) To investigate the mode of MAO inhibition, Lineweaver–Burk plots were constructed for the two inhibitors of the respective MAO isoforms, 3f and 5f. For each inhibitor, six plots were constructed using a range of eight substrate concentrations (15–250 µM) for each plot. The inhibitor concentrations were selected to bracket the IC50 values. […] For each isoform, a plot was also constructed in the absence of the inhibitor.
(§4) To investigate the mode of inhibition, Lineweaver–Burk plots were constructed. A set of six plots were constructed for each test inhibitor using five inhibitor concentrations that bracketed the IC50 value as well as one plot in the absence of inhibitor. For each line, eight different concentrations of kynuramine (15–250 µM) were used. Subsequently, the slopes of the Lineweaver–Burk plots were plotted versus inhibitor concentration, and the Ki values were estimated from the x-intercept (Ki = −x-intercept).

For series [5], the target named is T2, MAO-A. Description: MAO-A inhibition, recombinant human enzyme, kynuramine substrate, fluorometric end-point. Format: biochemical. The note with it: mean ± SD of triplicate, racemic mixtures, NI = no inhibition at 100 µM. The procedure: as §1, §2
The target in series [6] is T1, MAO-B. In words: Mode of MAO-B inhibition, Lineweaver-Burk plots. Format: biochemical. The procedure:
as §3, §4

In the case of `N#CCCN1N=C(c2ccc(-c3ccccc3)cc2)OCC1=O` [A, 2-(4-Biphenylyl)-4-(2-cyanoethyl)-4H-1,3,4-oxadiazin-5(6H)-one], the IC50 in series [1] is 32000 nM; in series [2], 630 nM.
Regarding `COc1ccc(Oc2ccc(C3=NOCC(=O)N3)cc2)cc1` [Compound 3f, 3-(4-(4-Methoxyphenoxy)phenyl)-4H-1,2,4-oxadiazin-5(6H)-one], the IC50 in series [3] worked out at 3.98 ± 0.518 µM; in series [5], 3.75 ± 0.212 µM. In addition, the “mode of MAO-A inhibition” value in series [4] (Lineweaver-Burk plots) is recorded as “competitive inhibition”. Further, the affinity in series [4] (from replot of Lineweaver-Burk slopes versus inhibitor concentration (1 to 5 µM), kynuramine 15–250 µM) corresponds to a Ki of 1300 nM.
For the compound `CCC1ON=C(c2ccc(Oc3ccc(OC)cc3)cc2)NC1=O` (centres unmarked) [Compound 5f, 6-Ethyl-3-(4-(4-methoxyphenoxy)phenyl)-4H-1,2,4-oxadiazin-5(6H)-one], the melting point was in the range of 117 to 119 °C. The IC50 in series [3] turned out to be 0.9 ± 0.05 µM. For the same compound, the “mode of MAO-B inhibition” value in series [6] (Lineweaver-Burk plots) was “competitive inhibition”. The compound also returned a Ki in series [6] (from replot of Lineweaver-Burk slopes versus inhibitor concentration (0.25 to 1.25 µM), kynuramine 15–250 µM) of 350 nM. Also, the IC50 in series [5] worked out at 15.4 ± 1.98 µM.

The values are drawn from paper PMC11643077, “Synthesis of 1,2,4-Oxadiazin-5(6H)-One Derivatives and Their Biological Investigation as Monoamine Oxidase Inhibitors” (Molecules, 2024).
